Results published in patent US20040116499A1, “Indole derivatives having an inhibitory effect on protein kinases” (priority 2001, published 2004).

System: protein kinase C
Test: Inhibition of the protein kinase C activity in vitro (protein kinase C assay kit, Calbiochem)
Assay type: biochemical
Conditions: both isomers as well as the racemate; test not specified at the place
Experimental: For testing the inhibitory effect on protein kinase C a commercially available protein kinase C assay kit (e.g. Calbiochem, Cat. No. 538484) may be employed. For this purpose the phosphorylation of a pseudosubstrate is measured by means of a specific antibody. The substances to be investigated are employed as solution in dimethylsulfoxid. […] By means of this assay the effects on individual PKC isoforms and the inhibition thereof may be tested. The effective concentration may be then determined at a given ATP concentration.
According to this Calbiochem kit it is worked with a batch of 200 μl/well in the following manner: 13 μl of buffer solution, 26 μl of 1 mM ATP (pH 7.0), 13 μl of phosphatidyl serine (500 μg/ml), 13 μl of 20 mM CaCl2, 65 μl of H2O and 55 μl of H2O, respectively, and 10 μl of inhibitor solution in DMSO are mixed, wherein 108 μl are added to an uncoated well. 12 μl of PKC solution (protein content and activity respectively of 0.1 U/12 μl) are added thereto and 100 μl thereof are added to the coated microtiter plate. After incubation for 20 min at room temperature 100 μl stop solution is added. Then washing is done five times with washing solution. […] Thereafter there is again a treatment with 100 μl of stop solution, and then the measurement is done in the Elisa reader at 492 nm. […]

O=C(O)C1Cc2c([nH]c3ccccc23)C2(N1)C(=O)C(c1c[nH]c3ccccc13)=C(c1c[nH]c3ccccc13)C2=O (stereo not shown) [Pityriarubine A]
inhibitory effect: distinct inhibitory effect
